Assay results from paper PMC8371461 (Frontiers in Pharmacology, 2021).
Where two headings read alike, the source gives them in different places.

What was measured:
MEK2 = biological target: T1, MEK2 (Homo sapiens, UniProt P36507); test: kinome scan; format: binding; conditions: 10 µM
T1 construct: purchased DiscoverX (KINOMEscan)

DCAMKL2 = biological target: T2, DCAMKL2 (Homo sapiens, UniProt Q8N568); test: kinome scan; format: binding; conditions: 10 µM
T2 construct: purchased DiscoverX (KINOMEscan)

SRC = biological target: T3, SRC (Homo sapiens, UniProt P12931); test: kinome scan; format: binding; conditions: 10 µM
T3 construct: purchased DiscoverX (KINOMEscan)

PCTK1 = biological target: T4, PCTK1 (Homo sapiens, UniProt Q00536); test: kinome scan; format: binding; conditions: 10 µM
T4 construct: purchased DiscoverX (KINOMEscan)

CAMK1 = biological target: T5, CAMK1 (Homo sapiens, UniProt Q14012); test: kinome scan; format: binding; conditions: 10 µM
T5 construct: purchased DiscoverX (KINOMEscan)

EPHB4 = biological target: T6, EPHB4 (Homo sapiens, UniProt P54760); test: kinome scan; format: binding; conditions: 10 µM
T6 construct: purchased DiscoverX (KINOMEscan)

CDKL1 = biological target: T7, CDKL1 (Homo sapiens, UniProt Q00532); test: kinome scan; format: binding; conditions: 10 µM
T7 construct: purchased DiscoverX (KINOMEscan)

BMPR1B = biological target: T8, BMPR1B (Homo sapiens, UniProt O00238); test: kinome scan; format: binding; conditions: 10 µM
T8 construct: purchased DiscoverX (KINOMEscan)

ERBB4 = biological target: T9, ERBB4 (Homo sapiens, UniProt Q15303); test: kinome scan; format: binding; conditions: 10 µM
T9 construct: purchased DiscoverX (KINOMEscan)

AKT = AKT phosphorylation at the protein level in PSC; format: cell-based, mouse; conditions: 10 µM, 10 min, 1 and 3 h after exposure
SIK = biological target: T10, SIK (Homo sapiens, UniProt P57059); test: kinome scan; format: binding; conditions: 10 µM
T10 construct: purchased DiscoverX (KINOMEscan)

FLT3(R834Q) = biological target: T11, FLT3(R834Q) (Homo sapiens, UniProt P36888, R834Q); test: kinome scan; format: binding; conditions: 10 µM
T11 construct: purchased DiscoverX (KINOMEscan)

PCTK2 = biological target: T12, PCTK2 (Homo sapiens, UniProt Q00537); test: kinome scan; format: binding; conditions: 10 µM
T12 construct: purchased DiscoverX (KINOMEscan)

IRAK4 = biological target: T13, IRAK4 (Homo sapiens, UniProt Q9NWZ3); test: kinome scan; format: binding; conditions: 10 µM
T13 construct: purchased DiscoverX (KINOMEscan)

EPHA2 = biological target: T14, EPHA2 (Homo sapiens, UniProt P29317); test: kinome scan; format: binding; conditions: 10 µM
T14 construct: purchased DiscoverX (KINOMEscan)

[1] = tested on: Mitochondrial membrane potential; set-up: method as in CHEMBL1614240; conditions: reported activity, data mining; ref CHEMBL1614240; cited from earlier work
PIK3CA = biological target: T15, PIK3CA (Homo sapiens, UniProt P42336); test: kinome scan; format: binding; conditions: 10 µM
T15 construct: purchased DiscoverX (KINOMEscan)

KIT = biological target: T16, KIT (Homo sapiens, UniProt P10721); test: kinome scan; format: binding
T16 construct: purchased DiscoverX (KINOMEscan)

FER = biological target: T17, FER (Homo sapiens, UniProt P16591); test: kinome scan; format: binding; conditions: 10 µM
T17 construct: purchased DiscoverX (KINOMEscan)

BMPR2 = biological target: T18, BMPR2 (Homo sapiens, UniProt Q13873); test: kinome scan; format: binding; conditions: 10 µM
T18 construct: purchased DiscoverX (KINOMEscan)

[2] = biological target: T19, JAK1(JH1domain-catalytic) (Homo sapiens, UniProt P23458); test: kinome scan; format: binding; conditions: 10 µM
T19 construct: JAK1(JH1domain-catalytic); purchased DiscoverX (KINOMEscan)

AMPK-alpha1 = biological target: T20, AMPK-alpha1 (Homo sapiens, UniProt Q13131); test: kinome scan; format: binding; conditions: 10 µM
T20 construct: purchased DiscoverX (KINOMEscan)

CSNK1G3 = biological target: T21, CSNK1G3 (Homo sapiens, UniProt Q9Y6M4); test: kinome scan; format: binding
T21 construct: purchased DiscoverX (KINOMEscan)

DMPK2 = biological target: T22, DMPK2 (Homo sapiens, UniProt Q6DT37); test: kinome scan; format: binding; conditions: 10 µM
T22 construct: purchased DiscoverX (KINOMEscan)

QSK = biological target: T23, QSK (Homo sapiens, UniProt Q9Y2K2); test: kinome scan; format: binding; conditions: 10 µM
T23 construct: purchased DiscoverX (KINOMEscan)

PFTK1 = biological target: T24, PFTK1 (Homo sapiens, UniProt O94921); test: kinome scan; format: binding; conditions: 10 µM
T24 construct: purchased DiscoverX (KINOMEscan)

MKNK2 = biological target: T25, MKNK2 (Homo sapiens, UniProt Q9HBH9); test: kinome scan; format: binding
T25 construct: purchased DiscoverX (KINOMEscan)

PYK2 = biological target: T26, PYK2 (Homo sapiens, UniProt Q14289); test: kinome scan; format: binding; conditions: 10 µM
T26 construct: purchased DiscoverX (KINOMEscan)

PIP5K1C = biological target: T27, PIP5K1C (Homo sapiens, UniProt O60331); test: kinome scan; format: binding; conditions: 10 µM
T27 construct: purchased DiscoverX (KINOMEscan)

ULK2 = biological target: T28, ULK2 (Homo sapiens, UniProt Q8IYT8); test: kinome scan; format: binding; conditions: 10 µM
T28 construct: purchased DiscoverX (KINOMEscan)

[3] = biological target: T29, ABL1(F317I)-phosphorylated (Homo sapiens, UniProt P00519, F317I); test: kinome scan; format: binding; conditions: 10 µM
T29 construct: purchased DiscoverX (KINOMEscan)

LZK = biological target: T30, LZK (Homo sapiens, UniProt O43283); test: kinome scan; format: binding; conditions: 10 µM
T30 construct: purchased DiscoverX (KINOMEscan)

ERN1 = biological target: T31, ERN1 (Homo sapiens, UniProt O75460); test: kinome scan; format: binding; conditions: 10 µM
T31 construct: purchased DiscoverX (KINOMEscan)

DRAK2 = biological target: T32, DRAK2 (Homo sapiens, UniProt O94768); test: kinome scan; format: binding; conditions: 10 µM
T32 construct: purchased DiscoverX (KINOMEscan)

IKK-epsilon = biological target: T33, IKK-epsilon (Homo sapiens, UniProt Q14164); test: kinome scan; format: binding; conditions: 10 µM
T33 construct: purchased DiscoverX (KINOMEscan)

[4] = biological target: T34, RSK2(Kin.Dom.1-N-terminal) (Homo sapiens, UniProt P51812); test: kinome scan; format: binding; conditions: 10 µM
T34 construct: RSK2(Kin.Dom.1-N-terminal); purchased DiscoverX (KINOMEscan)

ABL1-phosphorylated = biological target: T35, ABL1-phosphorylated (Homo sapiens, UniProt P00519); test: kinome scan; format: binding; conditions: 10 µM
T35 construct: purchased DiscoverX (KINOMEscan)

AURKC = biological target: T36, AURKC (Homo sapiens, UniProt Q9UQB9); test: kinome scan; format: binding; conditions: 10 µM
T36 construct: purchased DiscoverX (KINOMEscan)

PAK4 = biological target: T37, PAK4 (Homo sapiens, UniProt O96013); test: kinome scan; format: binding; conditions: 10 µM
T37 construct: purchased DiscoverX (KINOMEscan)

CDK4-cyclinD1 = biological target: T38, CDK4-cyclinD1 (Homo sapiens, UniProt P11802); test: kinome scan; format: binding; conditions: 10 µM
T38 construct: purchased DiscoverX (KINOMEscan)

MET(Y1235D) = biological target: T39, MET(Y1235D) (Homo sapiens, UniProt P08581, Y1235D); test: kinome scan; format: binding; conditions: 10 µM
T39 construct: purchased DiscoverX (KINOMEscan)

T25 sequence (Q9HBH9 whole entry): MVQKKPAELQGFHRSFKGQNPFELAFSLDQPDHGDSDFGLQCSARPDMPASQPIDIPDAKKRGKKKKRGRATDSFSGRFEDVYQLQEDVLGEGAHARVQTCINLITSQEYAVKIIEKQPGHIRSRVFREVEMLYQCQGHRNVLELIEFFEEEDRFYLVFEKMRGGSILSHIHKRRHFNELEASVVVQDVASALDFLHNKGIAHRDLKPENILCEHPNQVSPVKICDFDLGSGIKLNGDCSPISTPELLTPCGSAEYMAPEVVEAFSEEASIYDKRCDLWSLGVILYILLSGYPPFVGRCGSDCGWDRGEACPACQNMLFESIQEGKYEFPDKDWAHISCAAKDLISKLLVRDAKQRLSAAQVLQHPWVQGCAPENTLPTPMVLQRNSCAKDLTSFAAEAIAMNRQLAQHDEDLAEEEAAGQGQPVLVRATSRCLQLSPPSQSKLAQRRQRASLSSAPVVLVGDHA
T21 sequence (Q9Y6M4 whole entry): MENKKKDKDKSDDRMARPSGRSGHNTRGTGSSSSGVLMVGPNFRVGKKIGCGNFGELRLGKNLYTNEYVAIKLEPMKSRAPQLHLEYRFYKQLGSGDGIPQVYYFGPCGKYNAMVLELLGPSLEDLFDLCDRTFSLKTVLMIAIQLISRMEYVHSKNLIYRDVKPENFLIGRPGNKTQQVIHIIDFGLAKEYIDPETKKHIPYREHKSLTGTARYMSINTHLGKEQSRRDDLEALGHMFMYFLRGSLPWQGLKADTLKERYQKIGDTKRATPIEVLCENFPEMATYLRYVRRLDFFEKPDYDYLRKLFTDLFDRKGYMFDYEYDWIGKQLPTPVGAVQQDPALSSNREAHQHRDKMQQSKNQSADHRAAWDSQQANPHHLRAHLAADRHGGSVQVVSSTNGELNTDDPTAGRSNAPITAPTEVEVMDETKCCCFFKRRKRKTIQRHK
T16 sequence (P10721 26-976): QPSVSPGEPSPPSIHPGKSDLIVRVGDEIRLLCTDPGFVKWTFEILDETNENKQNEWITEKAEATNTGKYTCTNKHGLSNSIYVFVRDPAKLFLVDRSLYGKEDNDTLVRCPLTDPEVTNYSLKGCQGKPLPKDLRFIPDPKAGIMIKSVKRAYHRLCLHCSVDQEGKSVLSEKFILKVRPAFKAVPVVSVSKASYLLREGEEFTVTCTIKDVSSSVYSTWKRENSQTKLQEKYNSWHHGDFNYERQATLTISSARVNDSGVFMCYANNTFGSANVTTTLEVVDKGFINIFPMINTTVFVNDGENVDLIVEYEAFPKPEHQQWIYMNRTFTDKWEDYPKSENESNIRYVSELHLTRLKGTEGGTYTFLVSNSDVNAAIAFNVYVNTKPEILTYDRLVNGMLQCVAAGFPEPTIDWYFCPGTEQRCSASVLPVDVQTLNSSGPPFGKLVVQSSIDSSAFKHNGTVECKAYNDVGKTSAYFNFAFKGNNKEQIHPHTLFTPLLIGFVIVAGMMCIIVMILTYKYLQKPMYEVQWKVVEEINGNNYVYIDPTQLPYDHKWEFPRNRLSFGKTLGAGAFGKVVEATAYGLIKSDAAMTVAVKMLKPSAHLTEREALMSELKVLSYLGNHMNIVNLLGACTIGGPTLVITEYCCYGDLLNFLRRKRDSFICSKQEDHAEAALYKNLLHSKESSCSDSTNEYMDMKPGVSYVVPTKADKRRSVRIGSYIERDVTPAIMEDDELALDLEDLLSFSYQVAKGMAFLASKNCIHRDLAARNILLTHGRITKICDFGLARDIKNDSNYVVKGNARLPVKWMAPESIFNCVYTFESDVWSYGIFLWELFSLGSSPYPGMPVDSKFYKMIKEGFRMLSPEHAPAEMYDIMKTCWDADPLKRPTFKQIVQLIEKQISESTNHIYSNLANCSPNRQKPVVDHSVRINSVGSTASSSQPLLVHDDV
T35 sequence (P00519 whole entry): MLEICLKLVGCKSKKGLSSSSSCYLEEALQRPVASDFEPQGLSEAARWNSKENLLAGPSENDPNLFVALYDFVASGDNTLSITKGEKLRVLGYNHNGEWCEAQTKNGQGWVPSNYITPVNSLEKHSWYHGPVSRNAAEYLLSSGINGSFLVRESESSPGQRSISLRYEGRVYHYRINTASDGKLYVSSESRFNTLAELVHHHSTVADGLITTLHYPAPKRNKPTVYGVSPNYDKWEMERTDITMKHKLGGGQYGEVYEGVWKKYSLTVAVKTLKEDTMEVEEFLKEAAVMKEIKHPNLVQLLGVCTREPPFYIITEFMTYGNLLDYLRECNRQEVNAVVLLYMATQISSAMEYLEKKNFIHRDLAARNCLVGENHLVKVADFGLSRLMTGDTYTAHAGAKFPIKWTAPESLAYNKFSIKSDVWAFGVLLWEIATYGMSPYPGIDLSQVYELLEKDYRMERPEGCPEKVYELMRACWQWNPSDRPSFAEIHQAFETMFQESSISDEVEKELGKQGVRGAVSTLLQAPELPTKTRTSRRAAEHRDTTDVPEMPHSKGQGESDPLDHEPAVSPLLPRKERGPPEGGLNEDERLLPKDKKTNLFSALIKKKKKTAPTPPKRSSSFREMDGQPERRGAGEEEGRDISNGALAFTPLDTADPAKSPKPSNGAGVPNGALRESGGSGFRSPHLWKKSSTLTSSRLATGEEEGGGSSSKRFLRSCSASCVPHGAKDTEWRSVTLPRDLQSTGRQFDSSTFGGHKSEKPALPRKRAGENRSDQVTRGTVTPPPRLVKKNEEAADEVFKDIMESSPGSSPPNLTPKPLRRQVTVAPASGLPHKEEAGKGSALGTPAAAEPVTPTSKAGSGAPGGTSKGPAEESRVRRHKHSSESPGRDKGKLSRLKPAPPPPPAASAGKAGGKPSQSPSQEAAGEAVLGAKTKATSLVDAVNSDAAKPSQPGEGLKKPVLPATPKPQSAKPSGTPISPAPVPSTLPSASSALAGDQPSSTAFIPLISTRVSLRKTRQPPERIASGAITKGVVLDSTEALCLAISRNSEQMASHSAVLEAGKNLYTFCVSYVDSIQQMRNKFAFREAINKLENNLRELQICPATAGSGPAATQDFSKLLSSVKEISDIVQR
T24 sequence (O94921 whole entry): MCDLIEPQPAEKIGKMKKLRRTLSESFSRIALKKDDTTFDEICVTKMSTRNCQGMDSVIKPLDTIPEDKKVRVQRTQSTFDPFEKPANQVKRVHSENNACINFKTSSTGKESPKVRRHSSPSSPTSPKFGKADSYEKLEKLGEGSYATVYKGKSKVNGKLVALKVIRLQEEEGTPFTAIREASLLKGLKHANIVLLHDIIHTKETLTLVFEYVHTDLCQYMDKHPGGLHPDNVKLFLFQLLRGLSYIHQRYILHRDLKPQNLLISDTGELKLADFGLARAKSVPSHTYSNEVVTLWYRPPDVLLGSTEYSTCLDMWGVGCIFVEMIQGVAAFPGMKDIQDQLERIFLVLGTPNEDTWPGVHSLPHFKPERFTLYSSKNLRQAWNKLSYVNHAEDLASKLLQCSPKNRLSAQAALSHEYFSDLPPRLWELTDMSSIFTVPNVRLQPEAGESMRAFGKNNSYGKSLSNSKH
T18 sequence (Q13873 27-1038): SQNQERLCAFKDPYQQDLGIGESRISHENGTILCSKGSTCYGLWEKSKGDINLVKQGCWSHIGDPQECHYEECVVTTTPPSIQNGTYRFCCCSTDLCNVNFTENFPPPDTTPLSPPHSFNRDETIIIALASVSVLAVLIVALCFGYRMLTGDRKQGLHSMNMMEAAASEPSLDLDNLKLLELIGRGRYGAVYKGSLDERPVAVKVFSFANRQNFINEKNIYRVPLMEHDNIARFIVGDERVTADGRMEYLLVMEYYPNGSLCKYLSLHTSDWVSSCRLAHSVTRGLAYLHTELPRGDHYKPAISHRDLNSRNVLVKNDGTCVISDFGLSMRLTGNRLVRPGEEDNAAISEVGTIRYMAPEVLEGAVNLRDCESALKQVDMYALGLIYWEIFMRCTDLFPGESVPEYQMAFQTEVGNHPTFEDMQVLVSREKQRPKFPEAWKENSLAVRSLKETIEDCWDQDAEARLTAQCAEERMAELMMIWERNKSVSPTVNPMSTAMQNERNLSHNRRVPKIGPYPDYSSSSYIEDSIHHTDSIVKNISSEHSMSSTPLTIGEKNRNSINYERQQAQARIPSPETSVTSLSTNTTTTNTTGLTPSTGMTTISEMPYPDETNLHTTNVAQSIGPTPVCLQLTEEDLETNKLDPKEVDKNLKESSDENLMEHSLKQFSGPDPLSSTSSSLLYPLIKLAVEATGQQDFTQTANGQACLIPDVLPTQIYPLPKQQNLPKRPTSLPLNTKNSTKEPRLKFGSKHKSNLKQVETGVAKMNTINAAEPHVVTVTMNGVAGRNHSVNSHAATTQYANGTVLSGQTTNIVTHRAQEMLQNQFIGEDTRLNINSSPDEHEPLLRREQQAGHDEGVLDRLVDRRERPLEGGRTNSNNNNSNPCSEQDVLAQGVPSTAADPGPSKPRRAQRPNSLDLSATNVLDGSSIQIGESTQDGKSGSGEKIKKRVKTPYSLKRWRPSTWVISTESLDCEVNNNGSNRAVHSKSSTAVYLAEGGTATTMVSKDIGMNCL
T32 sequence (O94768 whole entry): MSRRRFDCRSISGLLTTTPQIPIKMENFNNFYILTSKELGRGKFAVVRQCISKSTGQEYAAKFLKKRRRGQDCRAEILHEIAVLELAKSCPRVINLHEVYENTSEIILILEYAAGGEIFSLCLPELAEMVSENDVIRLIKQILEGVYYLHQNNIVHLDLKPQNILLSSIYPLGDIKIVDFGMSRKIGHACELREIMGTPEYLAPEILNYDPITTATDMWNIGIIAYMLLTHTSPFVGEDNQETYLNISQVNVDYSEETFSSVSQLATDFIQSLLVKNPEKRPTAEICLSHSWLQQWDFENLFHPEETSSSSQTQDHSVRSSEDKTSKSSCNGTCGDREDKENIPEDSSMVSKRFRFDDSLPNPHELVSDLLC
T29 sequence (P00519 whole entry F317I): as the sequence (P00519 whole entry) above, with F317I counted along it

## Nc1ccc(N=Nc2ccccc2)c(N)n1 [phenazopyridine, 2,6-diamino-3-(phenylazo)pyridine]
MEK2
  kinase inhibition: 83
DCAMKL2
  kinase inhibition: 89
SRC
  kinase inhibition: 100
PCTK1
  kinase inhibition: 98
CAMK1
  kinase inhibition: 100
EPHB4
  kinase inhibition: 95
CDKL1
  kinase inhibition: 100
BMPR1B
  kinase inhibition: 95
ERBB4
  kinase inhibition: 78
AKT
  phosphorylation of AKT: reduced phosphorylation of AKT
SIK
  kinase inhibition: 100
FLT3(R834Q)
  remaining binding (% of control): 89
PCTK2
  kinase inhibition: 98
IRAK4
  kinase inhibition: 100
EPHA2
  kinase inhibition: 95
[1]
  Concentration: 16.7 µM
PIK3CA
  kinase inhibition: 84
KIT; KIT, 10 µM
  percent of control binding remaining: 41
KIT; c-KIT wt, read-out: Kinome scan (% of control at 10 µM)
  remaining binding at 10 µM: 41%
FER
  kinase inhibition: 100
BMPR2
  kinase inhibition: 97
[2]
  kinase inhibition: 97
AMPK-alpha1
  kinase inhibition: 99
CSNK1G3; CSNK1G3, 10 µM
  kinase inhibition: 100
CSNK1G3; Casein kinase 1 isoform γ 3 (CK1), read-out: Kinome scan (% of control at 10 µM)
  remaining binding at 10 µM: 44%
DMPK2
  kinase inhibition: 100
QSK
  kinase inhibition: 94
PFTK1
  kinase inhibition: 100
MKNK2; MKNK2, read-out: % Of control
  remaining binding at 10 µM: 6.6%
MKNK2; MKNK2, 10 µM
  remaining binding (% of control): 6.6
MKNK2; MNK2, read-out: Kinome scan (% of control at 10 µM)
  remaining binding at 10 µM: 6.6%
PYK2
  kinase inhibition: 100
PIP5K1C
  kinase inhibition: 42
ULK2
  kinase inhibition: 96
[3]
  kinase inhibition: 78
LZK
  kinase inhibition: 100
ERN1
  kinase inhibition: 82
DRAK2
  kinase inhibition: 100
IKK-epsilon
  kinase inhibition: 72
[4]
  kinase inhibition: 100
ABL1-phosphorylated
  kinase inhibition: 67
AURKC
  kinase inhibition: 68
PAK4
  kinase inhibition: 100
CDK4-cyclinD1
  kinase inhibition: 100
MET(Y1235D)
  kinase inhibition: 100
